From ChEMBL document CHEMBL1139612 (Bioorg Med Chem Lett, 2005)

Tests used:
[1] = species: Rattus norvegicus; assay: Ratio of dopamine receptor D2 to that of 5-hydroxytryptamine 1A receptor
[2] = molecular target: Serotonin 1a (5-HT1a) receptor/Adrenergic receptor alpha-1 (Rattus norvegicus) (UniProt P15823+P23944+P43140+P19327); assay: Ratio of alpha-1 adrenergic receptor to that of 5-hydroxytryptamine 1A receptor; type: protein assay
[3] = molecular target: T1, Adrenergic receptor alpha-1 (Rattus norvegicus, UniProt P15823+P23944+P43140); assay: Inhibitory concentration against Alpha-1 adrenergic receptor in rat cerebral cortex membrane using [3H]prazosin as radioligand; type: cell membranes
T1 sequence (P15823 whole entry): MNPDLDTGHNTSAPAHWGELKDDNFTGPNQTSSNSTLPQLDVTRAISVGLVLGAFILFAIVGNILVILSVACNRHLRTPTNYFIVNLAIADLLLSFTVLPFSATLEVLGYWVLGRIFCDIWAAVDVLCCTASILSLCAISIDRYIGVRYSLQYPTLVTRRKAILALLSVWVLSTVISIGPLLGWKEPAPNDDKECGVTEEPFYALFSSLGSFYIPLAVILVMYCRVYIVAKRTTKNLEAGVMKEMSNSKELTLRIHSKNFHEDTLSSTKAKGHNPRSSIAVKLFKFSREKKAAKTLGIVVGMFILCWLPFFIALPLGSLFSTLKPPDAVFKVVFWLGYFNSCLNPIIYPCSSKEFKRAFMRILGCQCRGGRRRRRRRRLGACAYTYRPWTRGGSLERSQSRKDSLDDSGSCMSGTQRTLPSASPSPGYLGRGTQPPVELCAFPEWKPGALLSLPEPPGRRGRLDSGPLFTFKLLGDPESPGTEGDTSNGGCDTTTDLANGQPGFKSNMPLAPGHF
T1 sequence (P23944 whole entry): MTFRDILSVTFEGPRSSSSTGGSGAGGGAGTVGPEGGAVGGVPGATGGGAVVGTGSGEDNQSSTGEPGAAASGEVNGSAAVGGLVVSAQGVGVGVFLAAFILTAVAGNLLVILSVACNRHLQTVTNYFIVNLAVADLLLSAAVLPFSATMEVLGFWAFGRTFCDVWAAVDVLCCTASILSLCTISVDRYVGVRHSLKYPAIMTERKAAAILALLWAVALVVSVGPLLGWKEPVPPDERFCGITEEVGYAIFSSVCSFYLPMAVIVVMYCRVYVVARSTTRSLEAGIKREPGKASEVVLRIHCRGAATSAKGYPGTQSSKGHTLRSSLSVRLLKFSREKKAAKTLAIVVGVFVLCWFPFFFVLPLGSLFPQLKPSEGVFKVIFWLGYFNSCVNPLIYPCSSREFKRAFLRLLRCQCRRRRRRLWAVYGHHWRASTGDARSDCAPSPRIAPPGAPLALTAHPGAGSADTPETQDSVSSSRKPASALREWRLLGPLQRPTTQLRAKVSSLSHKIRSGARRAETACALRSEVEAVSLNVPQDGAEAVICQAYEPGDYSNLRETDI
T1 sequence (P43140 whole entry): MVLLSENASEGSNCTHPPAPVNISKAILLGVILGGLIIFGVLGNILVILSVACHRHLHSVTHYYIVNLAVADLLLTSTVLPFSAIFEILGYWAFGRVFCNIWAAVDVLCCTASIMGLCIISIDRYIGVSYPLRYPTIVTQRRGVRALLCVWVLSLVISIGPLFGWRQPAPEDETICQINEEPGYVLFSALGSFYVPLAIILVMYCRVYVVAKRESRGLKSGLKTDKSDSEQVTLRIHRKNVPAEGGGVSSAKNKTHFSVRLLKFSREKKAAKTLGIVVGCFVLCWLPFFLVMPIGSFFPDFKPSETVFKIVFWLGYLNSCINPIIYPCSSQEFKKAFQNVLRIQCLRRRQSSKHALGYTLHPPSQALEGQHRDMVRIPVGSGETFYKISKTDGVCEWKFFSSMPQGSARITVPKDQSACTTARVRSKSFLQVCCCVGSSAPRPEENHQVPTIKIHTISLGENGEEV

[4] = molecular target: T2, 5-hydroxytryptamine receptor 1A (Rattus norvegicus, UniProt P19327); assay: Inhibitory concentration against 5-hydroxytryptamine 1A receptor in rat hippocampus membrane using [3H]-8-OH-DPAT as radioligand; type: cell membranes
T2 sequence (P19327 whole entry): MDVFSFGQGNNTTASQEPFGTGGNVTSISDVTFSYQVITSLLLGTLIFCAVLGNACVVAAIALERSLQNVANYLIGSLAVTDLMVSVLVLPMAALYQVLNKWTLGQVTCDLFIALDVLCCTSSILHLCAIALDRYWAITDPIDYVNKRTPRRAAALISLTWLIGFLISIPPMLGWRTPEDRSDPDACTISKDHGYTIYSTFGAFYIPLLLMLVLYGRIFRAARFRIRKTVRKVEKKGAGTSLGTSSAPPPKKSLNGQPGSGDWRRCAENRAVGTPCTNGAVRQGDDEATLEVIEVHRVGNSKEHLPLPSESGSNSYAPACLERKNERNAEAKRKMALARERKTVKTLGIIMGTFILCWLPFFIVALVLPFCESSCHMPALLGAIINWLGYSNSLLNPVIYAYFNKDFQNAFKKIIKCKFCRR

[5] = molecular target: D(2) dopamine receptor (Rattus norvegicus, UniProt P61169); assay: Inhibitory concentration against Dopamine receptor D2 in rat striatum membrane using [3H]raclopride as radioligand; type: cell membranes
D(2) dopamine receptor, sequence (P61169 whole entry): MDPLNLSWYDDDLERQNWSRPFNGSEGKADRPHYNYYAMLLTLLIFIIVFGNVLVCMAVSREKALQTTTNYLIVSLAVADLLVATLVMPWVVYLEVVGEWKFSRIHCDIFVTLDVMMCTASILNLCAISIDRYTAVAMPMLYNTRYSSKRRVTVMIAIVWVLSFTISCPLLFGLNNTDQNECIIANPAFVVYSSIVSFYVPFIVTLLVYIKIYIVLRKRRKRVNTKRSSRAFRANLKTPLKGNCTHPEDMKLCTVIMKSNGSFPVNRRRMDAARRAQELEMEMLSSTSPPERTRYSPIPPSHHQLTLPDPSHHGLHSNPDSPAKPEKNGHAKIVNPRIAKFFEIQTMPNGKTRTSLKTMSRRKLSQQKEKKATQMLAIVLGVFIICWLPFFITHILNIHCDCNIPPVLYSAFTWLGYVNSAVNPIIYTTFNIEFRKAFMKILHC

Ratio [1] | Ratio [2] | IC50 [3] | IC50 [4] | IC50 [5] | Compound
125 | 342 | 544 nM |  |  | O=C1c2ccccc2OC=C(Cl)N1CCCCN1CCN(c2ncccn2)CC1
 |  |  | 314 nM |  | O=C1c2ccccc2OC=C(Cl)N1CCCCN1CCCC(c2ncccn2)C1 (stereo not given)
310 | 344 | 2000 nM |  |  | Cl.O=C1c2ccccc2OC=C(Cl)N1CCCCN1CCC(c2ncccn2)CC1
66 | 56 | 43 nM |  |  | O=C1c2ccccc2OC=C(Cl)N1CCCCN1CCN(c2ccccn2)CC1
11 | 4.8 | 384 nM | 79.6 nM | 893 nM | O=C(O)/C=C/C(=O)O.O=C1c2ccccc2OC=C(Cl)N1CCCCN1CCC=C(c2ncccn2)C1

Compound | Ratio [1] | Ratio [2] | IC50 [3] | IC50 [4] | IC50 [5]
Cl.O=C1c2ccccc2OC=C(Cl)N1CCCCN1CCC(O)(c2ncccn2)CC1 |  | 3.6 | 9560 nM |  | 
Cl.O=C1c2ccccc2OC=C(Cl)N1CCCCN1CC=C(c2ncccn2)CC1 | 358 | 670 | 924 nM |  | 
